Values after ≈ are worked out from the molar mass of the structure shown. Where two headings read alike, the source gives them in different places. Marks after values point to notes of the source that are not given here.
Columns and labels:
[1] = tested on: K562 human leukemia-derived cell lines; experiment: K562 human leukemia cell-proliferation inhibition test; assay type: cell-based; conditions: K562 cells, 72 hours, viable cells counted with trypan blue
Method: K562 Human Leukemia Cell-Proliferation Inhibition Test
A cell proliferation inhibition test using K562 cells was performed. The activity in the presence of a test substance was compared to the activity in the presence of green tea polyphenol (GTP). The materials used in the test are as follows.
Cells: K562 human leukemia-derived cell lines (DS Pharma Biomedical Co., Ltd.)
Control Substance: Green Tea Polyphenols, abbreviation: GTP (LKT Laboratories, Inc.)
Culture solution: 10% equine serum-supplemented RPMI1640 medium
A test substance and a control substance were used by dissolving each of them in DMSO. To a solution (0.99 mL) containing K562 cells in a cell concentration of 20,000 cells/mL, a test substance solution or a control substance solution (0.01 mL) was added and the cells were cultured. Seventy two hours later, a part of the cells was stained with trypan blue and viable cells were counted by a counting chamber.
In Table 2, “IC50” denotes the sample concentration inhibiting 50% of cell proliferation

[2] = tested on: Salmonella typhimurium TA98 strain and TA100 strain; experiment: Growth inhibitory action and bactericidal action on salmonella (preincubation method, with and without S9 mix); assay type: cell-based; conditions: for Bactericidal action: lowest concentration at which all bacterial cells were killed
Method: Growth inhibitory action and bactericidal action on salmonella
1) Preparation of Test-Substance Solution
Test substances (compounds listed in Table 1) each were prepared by dissolving it in DMSO when used. Preparation was made in such a manner that the highest dose became 5000 μg/plate and the dose lower than this was prepared by a dilution method. In the table, reference numerals of individual compounds correspond to the numbers of the individual compounds synthesized in the above Examples (the same applies to the following Tables).
Salmonella typhimurium TA98 strain and TA100 strain were used.
These were supplied by Japan Bioassay Research Center, proliferated and examined for genetic properties and other properties in accordance with customary methods, in advance. After these strains were confirmed to have these properties, they are cryopreserved (−80° C.) with a DMSO-added medium; and thawed for use in each test.
3) A cryopreserved strain was thawed and inoculated in a 2.5% aqueous nutrient broth (OXOID No. 2) solution and cultured while shaking at 37° C. for 7 hours to obtain a cell suspension, which was subjected to tests.
A minimum glucose agar plate medium (Vital Media AMT-S, manufactured by Kyokuto Pharmaceutical Industrial Co., Ltd.) was used.
The top agar was prepared when used by blending an aqueous solution of 0.5 mM L-histidine and 0.5 mM D-(+)-biotin with an aqueous solution prepared by adding Bacto Agar (Difco) (0.6%) and sodium chloride (0.5%).
S9 was purchased from Kikkoman; whereas a cofactor was previously prepared in accordance with a method known in the art. They were mixed in a customary method to prepare S9 mix.
Using a test system containing S9 mix and a test system containing no S9 mix, a test was carried out in accordance with a preincubation method. As the dose selection, the highest dose was specified as […], which was then serially diluted in a common ratio of 2 to prepare a total of 15 doses to be used in the test.
To a sterile test tube, a test solution (0.1 mL) and 0.1 M Na-phosphate buffer or S9 mix (0.5 mL) and a cell suspension (0.1 mL) were sequentially dispensed. Pre-incubation was carried out at 37° C. for 20 minutes while shaking. After completion of the pre-incubation, top agar (2 mL) kept warm at 45° C. was added, mixed and placed on a minimum glucose agar plate medium. After solidification, the plate was turned upside down and cultured at 37° C. for 48 hours.
After completion of the culture, the state of microbial growth was observed by a stereomicroscope. After a precipitate on the plate was observed, revertant colonies were counted by the naked eye or a colony counter.
7) Criteria for Determination
Growth of both TA98 and TA100 strains was examined in the presence or absence of S9 mix. Among the resultant concentrations at which growth was inhibited, the lowest concentration was specified as the growth inhibitory concentration. Similarly, the bactericidal concentration was specified as the lowest concentration at which all bacterial cells were killed.

[3] = Homo sapiens, K562, 72 h, read-out: IC50
[4] = TA98 and TA100, presence or absence of S9 mix
[5] = lowest concentration at which growth was inhibited, TA98 and TA100, presence or absence of S9 mix

Compound | IC50 [1, 3] [µg/mL] | Bactericidal action [2, 4] [μg/plate] | Growth inhibition [2, 5] [μg/plate] | also measured
O=C(/C=C/c1ccccc1)Nc1ccc(S(F)(F)(F)(F)F)cc1 [Compound 35, 4-(cinnamoylamino)pentafluorosulfanylbenzene] | 0.2 (≈ 0.573 µM) | >2500 | 39.1 | –
CC(=O)Oc1ccc(/C=C/C(=O)Nc2ccc(S(F)(F)(F)(F)F)cc2)cc1OC(C)=O [Compound 4, 4-(3,4-diacetoxycinnamoylamino)pentafluorosulfanylbenzene] | 2.2 (≈ 4.73 µM) | 156 | – | Growth inhibition ([2]; TYPHIMURIUM): <39.1*^1 μg/plate
CC(=O)Oc1cc(C(=O)Nc2ccc(S(F)(F)(F)(F)F)cc2)cc(OC(C)=O)c1OC(C)=O [Compound 9, 4-(3,4,5-triacetoxybenzoylamino)pentafluorosulfanylbenzene] | 1.2 (≈ 2.41 µM) | 625 | 156 | –
O=C(Nc1ccc(S(F)(F)(F)(F)F)cc1NC(=O)c1cc(O)c(O)c(O)c1)c1cc(O)c(O)c(O)c1 [Compound 14, 3,4-bis(3,4,5-trihydroxybenzoylamino)pentafluorosulfanylbenzene] | – | 1250 | 625 | –
O=C(Nc1cc(S(F)(F)(F)(F)F)ccc1O)c1cc(O)c(O)c(O)c1 [Compound 12, 3-(3,4,5-trihydroxybenzoylamino)-4-hydroxypentafluorosulfanylbenzene] | – | 1250 | 313 | –
COc1cc(/C=C/C(=O)Nc2ccc(S(F)(F)(F)(F)F)cc2)cc(OC)c1O [Compound 53, 4-(4-hydroxy-3,5-dimethoxycinnamoylamino)pentafluorosulfanylbenzene] | 0.9 (≈ 2.12 µM) | – | – | –
C/C=C/Cc1cc(/C=C/C(=O)Nc2ccc(S(F)(F)(F)(F)F)cc2)cc(OC)c1O [Compound 47, 4-(4-hydroxy-5-(2-butenyl)-3-methoxycinnamoylamino)pentafluorosulfanylbenzene] | 3.5 (≈ 7.79 µM) | – | – | –
O=C(Nc1ccc(S(F)(F)(F)(F)F)cc1)c1ccccn1 [Compound 71, 4-(pyridin-2-yl)carbonylaminopentafluorosulfanylbenzene] | 4.4 (≈ 13.6 µM) | – | – | –
O=C(/C=C/c1ccc(O)c(O)c1)Nc1ccc(S(F)(F)(F)(F)F)cc1 [Compound 5, 4-(3,4-dihydroxycinnamoylamino)pentafluorosulfanylbenzene] | – | 78.1 | 19.5 | IC50 [1]: 0.36 µg/mL (≈ 0.944 µM)
O=C(Nc1cccc(S(F)(F)(F)(F)F)c1)c1cc(O)c(O)c(O)c1 [Compound 11, 3-(3,4,5-trihydroxybenzoylamino)pentafluorosulfanylbenzene] | 1.5 (≈ 4.04 µM) | 625 | 78.1 | –
O=C(Nc1ccc(S(F)(F)(F)(F)F)cc1)c1cccc(O)n1 [Compound 66, 4-(2-hydroxypyridin-6-yl)carbonylaminopentafluorosulfanylbenzene] | 2.3 (≈ 6.76 µM) | – | – | –
C=CCOc1cccc(C(=O)Nc2ccc(S(F)(F)(F)(F)F)cc2)c1 [Compound 64, 4-(3-allyloxybenzoylamino)pentafluorosulfanylbenzene] | 1.1 (≈ 2.9 µM) | – | – | –
O=C(/C=C/c1ccc(O)c(O)c1)Nc1ccc(S(F)(F)(F)(F)F)cc1 [Compound 56, 4-(3,4-dihydroxycinnamoylamino)pentafluorosulfanylbenzene] | – | – | – | IC50 [1]: 0.83 µg/mL (≈ 2.18 µM)
CC(=O)Oc1ccc(/C=C/C(=O)Oc2ccc(S(F)(F)(F)(F)F)cc2)cc1OC(C)=O [Compound 22, 4-(3,4-diacetoxycinnamoyloxy)pentafluorosulfanylbenzene] | – | 156 | 156 | –
COc1cc(/C=C/C(=O)Nc2ccc(S(F)(F)(F)(F)F)cc2)ccc1O [Compound 21, 4-(4-hydroxy-3-methoxycinnamoylamino)pentafluorosulfanylbenzene] | 0.93 (≈ 2.35 µM) | – | – | –
CC(=O)Oc1cc(/C=C/C(=O)Nc2ccc(S(F)(F)(F)(F)F)cc2)cc(OC(C)=O)c1OC(C)=O [Compound 25, 4-(3,4,5-triacetoxycinnamoylamino)pentafluorosulfanylbenzene] | 6.3 (≈ 12 µM) | – | – | –
O=C(Nc1ccc(S(F)(F)(F)(F)F)cc1)c1cocn1 [Compound 81, 4-(oxazol-4-yl)carbonylaminopentafluorosulfanylbenzene] | 2 (≈ 6.36 µM) | – | – | –
C=CC(C)Oc1ccc(/C=C/C(=O)Nc2ccc(S(F)(F)(F)(F)F)cc2)cc1OC (stereo not drawn) [Compound 44, 4-(4-(1-methyl-2-propenyloxy)-3-methoxycinnamoylamino)pentafluorosulfanylbenzene] | 1 (≈ 2.22 µM) | – | – | –
C=CC(C)(C)Oc1cccc(C(=O)Nc2ccc(S(F)(F)(F)(F)F)cc2)c1 [Compound 48, 4-(3-(1,1-dimethyl-2-propenyloxy)benzoylamino)pentafluorosulfanylbenzene] | 1.9 (≈ 4.66 µM) | – | – | –
COc1cc(/C=C/C(=O)Nc2ccc(S(F)(F)(F)(F)F)cc2)ccc1OCC=C(C)C [Compound 37, 4-(4-(3-methyl-2-butenyloxy)-3-methoxycinnamoylamino)pentafluorosulfanylbenzene] | 4.8 (≈ 10.4 µM) | – | – | –
C=CCc1cc(C(=O)Nc2ccc(S(F)(F)(F)(F)F)cc2)cc(OC)c1O [Compound 30, 4-(4-hydroxy-5-(2-propenyl)-3-methoxybenzoylamino)pentafluorosulfanylbenzene] | 0.9 (≈ 2.2 µM) | – | – | –
4-(3,5-dihydroxybenzoylamino)pentafluorosulfanylbenzene [Compound 50] | – | – | – | IC50 [1]: 3.5 µg/mL
O=C(Nc1ccc(S(F)(F)(F)(F)F)cc1)c1cccc(O)c1 [Compound 65, 4-(3-hydroxybenzoylamino)pentafluorosulfanylbenzene] | 0.92 (≈ 2.71 µM) | – | – | –
COc1cc(/C=C/C(=O)Nc2ccc(S(F)(F)(F)(F)F)cc2)ccc1OC(C)=O [Compound 20, 4-(4-acetoxy-3-methoxycinnamoylamino)pentafluorosulfanylbenzene] | 1.7 (≈ 3.89 µM) | – | 156 | –
O=C(Nc1ccc(S(F)(F)(F)(F)F)cc1)c1ccc(CO)o1 [Compound 33, 4-(5-hydroxymethylfuran-2-yl)carbonylaminopentafluorosulfanylbenzene] | 2.7 (≈ 7.87 µM) | – | – | –

Source: US9682931B2, “Aryloyl(oxy or amino)pentafluorosulfanylbenzene compound, pharmaceutically acceptable salt thereof, and prodrugs thereof” (UBE INDUSTRIES, LTD., priority 2013, dated 2017)
